From patent US20260071252A1, “REVERSIBLE NANOPARTICLE AGGREGATES AND METHODS FOR DETECTING PROTEASES” (The Regents of the University of California, priority 2022, published 2026) come the findings set out here.

Where “and” joins values, the source holds several entries; their conditions need not be identical. Identical values can stand only once. Where no end group is shown, it is not given here.

A short description of data set [1]: Colloidal stability of the dissociated AuNPs (aggregation parameter). The following applies: for colloidal stability of peptide-capped AuNPs: NaCl 0.5 to 2 μM (so in the source), absorbance 520/600 nm. Format: physicochemical. On the procedure: We further studied the role of Glu, Lys, and Pro amino acids in A1 peptides (FIG. 37h). For example, Pro-based spacer can provide a rigid and self-assembling monolayer (SAM) that increases the colloidal stability of AuNPs.^28 When the spacer was moved to the site between Glu and Lys residues (i.e., A5), the dissociation capacity was 50% lower than A1 peptide. […] A1 peptide without Lys (i.e., A7) decreased to 30% of the dissociation capacity likely due to the decrease in grafting kinetics of thiol-Au bonds and hydration layers.^22,25 Lastly, the dissociated AuNPs were incubated in different concentrations ([…]) of NaCl to examine colloidal stability of the dissociated AuNPs (FIG. 37i).
Pro-, Ala-, and Gly-based spacers have different hydrophobic and hydrophilic natures, rigidity, and flexibility.^22,29 For example, Pro residue is more hydrophobic and rigid (i.e, low mobility) while Gly residue is more hydrophilic and flexible. To investigate the impact of the rigidity and hydrophilicity of the peptides on the particle dissociation, we synthesized A1, A10, and A11 peptides that have different spacers: PP, AA, GG (FIG. 38a-b and FIG. 49). We also synthesized the peptide without a spacer (i.e., A9) to confirm the impact of the spacer on particle dissociation. […] We further compared colloidal stability of the dissociated AuNPs by A1, A9, A10, and A11 peptides. The dissociated AuNPs were incubated in NaCl (from […]) for 1 h and measured variations of absorbance between 520 nm and 600 nm.
This exemplary dissociation strategy can also improve colloidal stability of plasmonic nanoparticles. […] Lastly, this exemplary dissociation strategy is less affected by matrix interference. We replaced the sample matrix with 100% human plasma, urine, saliva, and seawater after RRK-based AuNPs aggregation. After adding dissociation peptides, reversible aggregation still occurred, leading to a blue-shift of the plasmonic resonance peak; this in turn changes color from blue to red in 100% human plasma, urine, saliva, and seawater (FIG. 40j-k and FIG. 27).

Data set [2] is described as follows: Peptide-enabled dissociation of RRK-induced AuNP aggregates. On the procedure: After inducing AuNP aggregates by the RRK peptides, the A1 peptides with different concentrations from 7 to 300 μM were used to dissociate AuNP aggregates. The plasmonic resonance peak of AuNP aggregates blue shifted to 520 nm after particle dissociation. (FIG. 37b). The hydrodynamic diameter of AuNP aggregates (greater than (>) 1 μm) was reduced to 27±0.07 nm, and the surface charge of AuNPs was—13.4±1.03 mV because of surface modification with neutral charged A1 peptides (150 μM) and residual citrates (FIG. 37c). Particle dissociation induced color change from blue to red and a decrease in size as confirmed by time-dependent photographs, multi-laser wavelength nanoparticle tracking analysis (M-NTA), and TEM (FIG. 37d-e and FIG. 45A-C).
To further study the role of each amino acid in the A1 peptide, we synthesized eight peptide sequences (from A2 to A8) for control experiments (FIG. 46A-H). Table 1 includes peptide sequence, net charge, critical dissociation concentrations (CDC), and design rationale. First, we replaced Cys residue with Gly (i.e., A2) to confirm the role of the anchoring group. […] Second, we hypothesized that negatively charged EE residues were required for particle dissociation because they provide electrostatic repulsions for citrate-coated AuNPs.
(§1) Briefly, 10 μM of RRK peptide was used to aggregate 100 μL of AuNPs (conc approximately 3.6 nM). The particle aggregation rapidly occurred (less than 10 s), changing color from red to blue. Then the desired dissociation peptides were used to dissociate the AuNP aggregates. It is notable that these exemplary AuNPs are stabilized by citrate. Different surface ligands (for example, BSPP) and different sizes (40 or 60 nm) require different amounts of RRK peptide for particle aggregation.
Briefly, RRK peptides (8-10 μM) was first used to trigger AuNP aggregation in distilled water. The sample was centrifuged at […] for 5 min to remove the supernatant. Then, the pellet was re-dispersed in 100% human saliva, plasma, urine, and seawater. After re-dispersion, the desired amounts of dissociation peptide were used to dissociate AuNPs aggregates in different matrixes. […] The experiment was performed with three replicates, and the microplate reader was used to measure spectral scanning from 300 to 900 nm before and after dissociation. The ratiometric signal (λ520/λ700) was referred as dissociation. The data was blanked to remove background signal.

A further data set deals with trypsin. The experiment in a line: Trypsin sensing with HS-PEG-peptide conjugates and Arg-Arg-AuNPs assemblies. Format: biochemical. The method, then: Peptides containing the motif Arg-Arg-Lys (RRK) were thus conjugated to a thiolated PEG capped with a carboxyl group (HS-PEG12-COOH, Mw=634 Da) via EDC/NHS cross-linking reaction. Three peptides based on the motif RRK were investigated and the number of RRK repetitions varied from 1 to 3 to increase the mass and charge of the resulting HS-PEG-peptide conjugate (FIG. 6A).
From concentrations of 10 μM, HS-PEG12-COOH is capable to dissociate 100% of the assemblies (FIG. 21). However, the conjugation of the peptides to the HS-PEG12-COOH was expected to decrease its capacity to dissociate the assemblies as it increases its size and charge. In this context, the addition of the HS-PEG-peptide conjugates to AuNPs assemblies could not generate a colorimetric signal. However, in the presence of trypsin, the proteolytic cleavage could progressively remove the amino acids residues from the conjugate, thus reducing its size and charge that would restore the dissociation capacity. A colorimetric signal, proportional to the trypsin activity, could thus be observed (FIG. 6B).
Typically, 1 mL of HS-PEG12-COOH (HS—(CH2CH2O)12—CH2CH2COOH, 634 Da, 1 mM) dissolved in MES buffer (10 mM, pH=5.5) was activated via the addition of 100 μL of EDC (50 mM, MES) and 40 μL of NHS (500 mM, MES). The reaction was stirred at room temperature for one hour. After one hour, 1 mL of peptide (or NH2-molecule) (1 mM) dissolved in PBS (100 mM, pH=7.4) was added to the activated HS-PEG12-COOH. The reaction was stirred for 4 hours at room temperature and then stored at 4° C.
Typically, 5 μL of the PEG-peptide conjugate (0.44 mM) were added to 5 μL of PBS 1×. […] At the end of the incubation, 100 μL of aggregated AuNPs (Arg-Arg-AuNPs) were added, and a color change proportional to the trypsin concentration was observed. UV-Vis spectra were recorded 30 minutes later.

Data set [3] is described as follows: RRK-based aggregation of citrate-coated AuNPs. The conditions noted are these: for particle aggregation of AuNPs: peptides from 0.5 to 30 μM.
Description: To induce reversible aggregation of the AuNPs, we used positively charged Arg and Lys-based peptide residues (i.e., RRK). The RRK peptide could induce plasmonic coupling by electrostatic attractions between negatively charged citrate molecules and guanidine and amine groups in RRK (FIG. 36a).^8,19 The size of AuNPs increased upon addition of RRK peptides, as confirmed by transmission electron microscopy (TEM) and dynamic light scattering (DLS) (FIG. 36b and FIG. 42). […] Raman spectroscopy observed the appearance of C—C stretching at 984 cm^−1 and C—N stretching at 1443 cm^−1 from Arg residues in RRK (FIG. 36d).^20 Lastly, R, RRK, and RRKRRK (SEQ ID NO:13) peptides (from 0.5 to 30 μM) were used to induce AuNP aggregates to study the impact of charge number on particle aggregation. […] A higher positive charge number can decrease the critical coagulation concentration (CCC).^7 RRK peptide was chosen in this study because particle aggregation induced by a strong cationic peptide (i.e., RRKRRK) (SEQ ID NO:13) can result in irreversible aggregation.
as §1

The nature of data set [4]: Peptide-induced (Arg-Arg) assembly of AuNPs-citrate, TEM/MANTA/UV-Vis. The conditions noted are these: water. The source says: Formation of AuNP assemblies. In this study, we investigated the possibility of forming convenient and reversible AuNPs assemblies using only elementary 15 nm AuNPs-citrate suspended in water and short peptides without the need for a complex surface modification. Peptides were used because they are relatively bulky and thus their steric prevented the particles from entering a permanent aggregated state. Arginine in particular can strongly interact with citrate anions via electrostatic interactions. A dipeptide containing two repetitions of arginine (Arg-Arg or RR) was thus used to interact with multiple particles at the same time and induce assembly.
Multispectral advanced nanoparticles tracking analysis (MANTA) was then used to confirm the size increase: The initial blue scattering corresponding to a hydrodynamic diameter of 40±25 nm (FIG. 1C) transformed immediately into red scattering corresponding to a hydrodynamic diameter of approximately 467±120 nm (FIG. 1D). Importantly, the count of particles decreased by more than 90%—from 2.5×10^5/mL to 2×10^4/mL, thus confirming that the vast majority of the AuNPs-citrate were aggregated. TEM images at different magnifications are seen in the supporting information (FIG. 10 and FIG. 11).
AuNPs Assembly and Dissociation Assembly. Typically, 1 mL of AuNPs-citrate at OD=1.5 was mixed with 50 μL of Arg-Arg (100 μM) to provoke the AuNPs assembly. The color of the suspensions rapidly changed from red to blue. The assembled AuNPs (Arg-Arg-AuNPs) were stable over time when stored at 4° C. and could be used for dissociation even month after their assembly.
The optical absorption measurements were collected using a hybrid multi-mode microplate reader (Synergy™ H1 model, BioTek Instruments, Inc.) in a 96-well plate. The dissociation of assembly was characterized by measuring the ratio of the absorbance at 520 nm or 530 nm and 700 nm or 820 nm for 20 nm NPs or 40 nm NPs, respectively.
The multispectral advanced nanoparticle tracking analysis (MANTA) is a technique that builds images from the particles' light scattering via three lasers of different wavelengths (for example, blue, green, and red); the wavelength of scattering depends on nanoparticle size. Thus, small particles (less than, or <, 100 nm) appear blue while larger particles appear greener or redder. MANTA uses these images to count the nanoparticles and calculate their size based on Brownian motion. MANTA was performed with the VIEWSIZER 3000™ (Horiba Scientific, USA). The temperature was set to 25° C. during the measurement. Automated noise analysis determines the optimal wavelength for representing each nanoparticle. Here, 8-bit composite videos were generated, and 10 videos were used per analysis (300 frames for seconds). A quartz cuvette with minimum volume of 1 mL was used for the measurement and the AuNPs concentrations was set up at 0.04 nM.

Data set [5] addresses SARS-CoV-2 main protease (Mpro) (Severe acute respiratory syndrome coronavirus 2, UniProt P0DTD1).
The nature of data set [6]: Dissociation efficiency of HS-PEG6-OCH3 for alternative assembly conditions or coating ligands. The following applies: high concentration (>100 μM) of HS-PEG6-OCH3.
Description: First, peptide-free conditions were used to promote the assembly of AuNPs-citrate and its dissociation with HS-PEG6-OCH3 was evaluated (FIG. 3A). Here, salts were added to AuNPs-citrate to induce aggregation via disruption of the electrostatic repulsion forces between the particles. […] Unlike the peptide Arg-Arg, these ions cannot sterically prevent the AuNPs from falling in an irreversible aggregated state.
AuNPs with different coating ligands were also evaluated and compared to citrate: bis(p-sulfonatophenyl)phenylphosphine (BSPP), mercaptobenzoic acid (MBA), or thiolated PEG-COOH (HS-PEG-COOH; Mw=634 g·mol^−1). […] This is because MBA and HS-PEG-COOH make covalent Au—S bonds with the gold surface that prevent subsequent grafting of HS-PEG6-OCH3.
Finally, an alternative control peptide was used for assembly (Cys-Arg-Lys).

For the molecule Ace-EEKKPPC-Am [Peptide A1], the “colloidal stability of peptide-capped AuNPs” value in data set [1] is recorded as “higher colloidal stability than citrate-coated AuNPs”. For the same molecule, the “time to dissociate AuNP aggregates” value in data set [2] (>150 μM peptide, ratiometric signal λ520/λ700) came out at 20 min. Further, the “hydrodynamic diameter after dissociation” value in data set [2] (A1 peptide 150 μM, aggregates >1 μm before) turned out to be 27±0.07 nm. Also, the “CDC” value was 150 µM in data set [2] (critical dissociation concentration, X (no dissociation)) and 40 µM in data set [2] (spacer comparison PP, AA, GG).
For Ace-EEKKC-Am [Peptide A9], the “colloidal stability of peptide-capped AuNPs” value in data set [1] is listed as “relatively low colloidal stability”.
For “HS-PEG-RRKRRKRRK: HS-PEG12-COOH conjugated to peptide RRKRRKRRK via EDC/NHS (also: HS-PEG12 conjugated via EDC/NHS, site not given here)”, the “dissociation capacity of the intact conjugate” value with trypsin (titrated to Arg-Arg-AuNPs, up to >100 μM, no trypsin) is recorded as “total quenching of the dissociation capacity”. Moreover, the “dissociation capacity after digestion with trypsin” value in the data set on trypsin (trypsin 10 μM, 37° C., 24 h) is listed as “restored”.
Turning to `N=C(N)NCCC[C@H](N)C(=O)O` [R, arginine, reference compound], the “particle aggregation of AuNPs” value in data set [3] was “did not aggregate”. Besides, the “induction of assembly of AuNPs-citrate” value in data set [4] is reported as “could not induce any form of assembly”.
In the case of “Ace-CGGKKEEAVLQSGFR-Am (Ac-CGGKKEEAVLQSGFR-NH2) [Peptide A18]”, the “colloidal stability in extreme conditions” value in data set [1] (DMEM, human plasma, saliva, human urine, NaCl 0.5 to 2M) was “maintained high colloidal stability”. In data set [5], the CDC entry was “at least 40 μM”; the “LoD for Mpro” value is 12.3 nM and 16.7 nM and 16.4 nM; the specificity test result is “only Mpro dissociated AuNP aggregates”.
As for Cys-Arg-Lys [reference compound], the “dissociation of the assembly by HS-PEG6-OCH3” value in data set [6] is given as “irreversible”.
On to Arg-Arg-Lys [RRK], for which, in data set [3], the “particle aggregation of AuNPs” value is on record as “effectively induced particle aggregation”. The “plasmonic resonance peak after addition of peptide” value in data set [3] (red-shifted from 520 nm) was 648 nm.
Turning to RRKRRK, the “particle aggregation of AuNPs” value in data set [3] is reported as “effectively induced particle aggregation”.
